What all share (assay type): cell-based
For test [1], the target named is T1, mouse FP receptor (Mus musculus, UniProt P43117).
T1 construct: expressed in transfected cells; host or cells: CHO cells (FP-CHO)
Kind of test: FP agonist activity (intracellular calcium concentration) in FP-CHO cells. As to conditions: for EC50: FP-CHO cells, intracellular calcium concentration, read-out: Agonist activity on various prostanoid receptors: EC50 value, FP. The source says: (§1) (1-1) Measurement of Agonist Activity on Various Mouse Prostanoid Receptors
(§2) Using CHO cells (FP-CHO, EP1-CHO and IP-CHO, respectively) in which various mouse prostanoid receptors were forcibly expressed, respectively, agonist activity of test compounds on various prostanoid receptors was studied employing an intracellular calcium concentration regarding FP and EP1, and an intracellular cyclic AMP (hereinafter, abbreviated as cAMP) production amount regarding IP, as an index.
(§3) The test compound and a control substance (PGE2 and iroprost) were dissolved with dimethyl sulfoxide (DMSO) to prepare a 10 mmol/L solution. Regarding the prepared 10 mmol/L solution, upon use, the 10 mmol/L solution was thawed, stepwisely-diluted using DMSO, and diluted with a buffer solution for measurement or a buffer solution for measurement 2, which was subjected to an experiment.
(§4) Cells forcibly expressing various mouse prostanoid receptors were standing-cultured at 37° C. in the presence of 5% CO2 using an α-MEM medium (Sigma) (for culturing FP-CHO and EP1-CHO) containing inactivated (56° C., 30 minutes) 9.8 vol % dialysed-FBS (Invitrogen) and penicillin-streptomycin-glutamine (GIBCO-BRL), or nucleic acid-containing α-MEM (Sigma) (for culturing IP-CHO) containing inactivated (56° C., 30 minutes) 9.8 vol % dialysed-FBS (Invitrogen) and penicillin-streptomycin glutamine (Invitrogen). Subculturing was performed by the following method.
(§5) The medium was removed, and washed with a phosphate-buffered physiological saline not containing Ca^2+ and Mg^2+ two times. A suitable amount of trypsin-EDTA (Invitrogen) was added, this was incubated at 37° C. for about 3 minutes, cells were peeled, and a medium having a volume which is 10-fold a volume of trypsin-EDTA was added to stop an enzymatic reaction. After cells were recovered (120 g) into a centrifuging tube, and centrifuged at room temperature for 3 minutes, the supernatant was removed. Cells were suspended in a suitable amount of a medium, and seeded in a culturing flask.
(§6) (1-2) Measurement of FP and EP1 Agonist Activity (Measurement of Intracellular Calcium Concentration)
(§7) Regarding FP-CHO and EP1-CHO, by the same method as that of subculturing, cells were peeled and suspended and, before two days from measurement, the suspension was seeded on a 96-well UV plate so that the cell number per well became 1.0×10^4, and standing-cultured at 37° C. in the presence of 5% CO2. On the measurement day, after the medium was removed from each well of the 96-well UV plate, each well was washed with a phosphate-buffered physiological saline not containing Ca^2+ and Mg^2+ once. To each well was added 100 μL of a medium containing 5 μmol/L fura 2-AM (DOJINDO), 2.5 mmol/L Probenecid (Sigma), 20 μmol/L indometacin (Sigma) and 10 mmol/L HEPES (Invitrogen), and this was incubated for about 60 minutes in a CO2 incubator. After completion of the incubation, the medium was removed, and this was washed with a buffer solution for measurement (Hank's balanced salt solution (Nissui Pharmaceutical Co., Ltd., 9.8 g of the present product was dissolved in 1 L distilled water) containing 0.1 or 1 w/v % bovine serum albumin, 2 μmol/L indometacin, 2.5 mmol/L Probenecid and 10 mmol/L HEPES-NaOH (pH 7.4)) two times. To each well was added 120 μL of a buffer solution for measurement, and this was allowed to stand in a CO2 incubator for 30 minutes, and stabilized, which was subjected to an experiment.
(§8) The 96-well UV plate was set in a fluorescent spectral photometer (FDSS-3000, Hamamatsu Photonics K.K.), and an intracellular calcium concentration was measured. A buffered solution for measurement ([…]) containing an agonist at a variety of concentrations was added to perform a reaction. Measurement of an intracellular calcium concentration was performed by irradiating cells with excited light of 340 nm and 380 nm alternately, measuring a fluorescent intensity at 500 nm, and obtaining a fluorescent intensity ratio of 2-wavelength excitation. […]
(In general: A change in cytosolic calcium serves as a functional read-out for many receptors and channels.)

For test [2], the target named is T2, mouse EP1 receptor (Mus musculus, UniProt P35375).
T2 construct: expressed in transfected cells; host or cells: CHO cells (EP1-CHO)
T2 sequence (P35375 1-405): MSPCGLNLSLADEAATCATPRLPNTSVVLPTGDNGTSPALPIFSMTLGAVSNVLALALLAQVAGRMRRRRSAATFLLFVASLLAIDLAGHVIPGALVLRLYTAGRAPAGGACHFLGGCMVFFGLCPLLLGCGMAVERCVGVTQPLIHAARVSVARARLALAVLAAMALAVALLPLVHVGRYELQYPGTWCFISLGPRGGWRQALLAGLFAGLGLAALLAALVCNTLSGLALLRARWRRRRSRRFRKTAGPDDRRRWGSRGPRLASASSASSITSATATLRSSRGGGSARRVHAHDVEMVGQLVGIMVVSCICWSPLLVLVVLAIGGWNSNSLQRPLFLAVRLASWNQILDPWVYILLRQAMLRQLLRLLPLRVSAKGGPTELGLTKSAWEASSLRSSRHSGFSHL
The test is described as follows: EP1 agonist activity (intracellular calcium concentration) in EP1-CHO cells. The following applies: for EC50: EP1-CHO cells, intracellular calcium concentration, read-out: Agonist activity on various prostanoid receptors: EC50 value, EP1.
Description: as §1, §2, §3, §4, §5, §6, §7, §8

In test [3] the target is T3, mouse IP receptor (Mus musculus, UniProt P43252).
T3 construct: expressed in transfected cells; host or cells: CHO cells (IP-CHO)
Kind of test: IP agonist activity (cAMP concentration) in IP-CHO cells. As to conditions: for EC50: IP-CHO cells, cAMP production, read-out: Agonist activity on various prostanoid receptors: EC50 value, IP.
Description: as §1, §2, §3, §4, §5
(1-3) Measurement of IP Agonist Activity (Measurement of cAMP Concentration)
On the measurement day, a medium was removed, and IP-CHO was washed with a phosphate-buffered physiological saline containing 2 mmol/L EDTA and not containing Ca^2+ and Mg^2+ once. A suitable amount of a phosphate-buffered physiological containing 2 mmol/L EDTA and not containing Ca^2+ and Mg^2+ was added, this was incubated at 37° C. for about 10 minutes, cells were peeled, cells were recovered (500 g) into a centrifuging tube, and centrifuged at room temperature for 3 minutes, and the supernatant was removed.
Cells were suspended in a suitable amount of a buffer solution for measurement 1 (MEM medium (Invitrogen) containing 0.1 w/v % bovine serum albumin (Sigma) and 2 μmol/L diclofenac (Sigma)), and centrifuged at room temperature for 3 minutes at 500 g, and the supernatant was removed. Cells were suspended in a buffer solution for measurement 2 (MEM medium (Invitrogen) containing 0.1 w/v % bovine serum albumin (Sigma), 2 μmol/L diclofenac (Sigma) and 1 mmol/L 3-isobutyl-1-methylxanthine), and each 25 μL of the suspension was dispensed into a 96-well ½ area plate so that the cell number per well became 5.0×10^4. A buffer solution for measurement 2 (25 μL) containing an agonist at a variety of concentrations was added to perform a reaction at room temperature for 30 minutes. Measurement of a cAMP concentration was performed using the cAMP HTRF HiRange kit (CIS bio International). According to the two step protocol of the kit manual, each 25 μL of cAMP-D2 and cryptate diluted with a lysis buffer were added, and this was incubated at room temperature for 1 hour. After incubation for 1 hour, time resolution fluorescence at 620 nm and 660 nm when excited at 340 nm was measured using Analyst GF (Molecular Device), and a ratio (TRF ratio) was obtained, thereby, a cAMP concentration was calculated from a calibration line. […]
In general terms: cAMP levels reflect the balance of adenylyl cyclase and phosphodiesterase activity.

Experimental findings from patent US11617733B2, “Bicyclic compound and use thereof for medical purposes” (ONO PHARMACEUTICAL CO., LTD., priority 2009, dated 2023) are described below.

Bounds are passed on as bounds.

T3 sequence (P43252 whole entry): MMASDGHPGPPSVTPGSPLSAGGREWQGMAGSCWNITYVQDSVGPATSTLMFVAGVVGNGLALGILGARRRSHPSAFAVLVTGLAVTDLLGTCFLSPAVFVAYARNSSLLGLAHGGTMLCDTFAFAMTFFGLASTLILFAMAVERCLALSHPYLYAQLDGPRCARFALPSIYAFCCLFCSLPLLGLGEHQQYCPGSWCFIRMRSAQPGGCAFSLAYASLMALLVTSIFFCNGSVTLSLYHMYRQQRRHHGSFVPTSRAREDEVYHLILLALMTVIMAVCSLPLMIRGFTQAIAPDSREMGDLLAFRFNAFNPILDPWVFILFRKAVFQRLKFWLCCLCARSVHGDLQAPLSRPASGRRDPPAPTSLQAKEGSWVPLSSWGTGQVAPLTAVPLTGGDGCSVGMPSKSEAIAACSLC
T1 sequence (P43117 whole entry): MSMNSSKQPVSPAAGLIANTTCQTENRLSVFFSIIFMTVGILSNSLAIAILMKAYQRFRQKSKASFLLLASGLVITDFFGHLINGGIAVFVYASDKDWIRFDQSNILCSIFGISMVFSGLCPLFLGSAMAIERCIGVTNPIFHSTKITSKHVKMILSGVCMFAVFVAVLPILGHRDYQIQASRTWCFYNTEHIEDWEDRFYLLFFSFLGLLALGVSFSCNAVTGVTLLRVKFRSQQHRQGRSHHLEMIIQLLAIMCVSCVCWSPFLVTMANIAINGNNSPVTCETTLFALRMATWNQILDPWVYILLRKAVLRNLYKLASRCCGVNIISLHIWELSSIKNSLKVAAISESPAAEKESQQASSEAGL

In the case of `O=C(O)CCC[C@H]1CC[C@@H]2[C@@H](/C=C/[C@@H](O)COc3ccccc3)[C@H](O)C[C@@H]2O1` [Comparative Compound A, reference compound], in test [1] (summary of Table 7), the “Agonist activity on a FP receptor (in words)” value is on record as “has agonist activity”. The “Agonist activity on an EP1 receptor (in words)” value in test [2] (summary of Table 7) is “has agonist activity”. The “Agonist activity on an IP receptor (in words)” value in test [3] (summary of Table 7) is listed as “has agonist activity”.
For `O=C(O)CCC[C@H]1CC[C@@H]2[C@@H](/C=C/[C@@H](O)COc3cccc(Cl)c3)[C@H](O)C[C@@H]2OC1` [Example 17 (3), 4-{(3S, 5aR, 6R, 7R, 8aS)-6-[(1E, 3R)-4-(3-chlorophenoxy)-3-hydroxy-1-buten-1-yl]-7-hydroxyoctahydro-2H-cyclopenta[b]oxepin-3-yl}butanoic acid], the EC50 in test [1] is 3 nM; in test [2] it was 3200 nM; in test [3], above 10000 nM.
In the same order, the values of `Cc1cccc(OC[C@H](O)/C=C/[C@@H]2[C@H]3CC[C@H](CCCC(=O)O)CO[C@H]3C[C@H]2O)c1` [Example 17 (4), 4-{(3S, 5aR, 6R, 7R, 8aS)-7-hydroxy-6-[(1E, 3R)-3-hydroxy-4-(3-methylphenoxy)-1-buten-1-yl]octahydro-2H-cyclopenta[b]oxepin-3-yl}butanoic acid] are 8.8 nM, above 10000 nM and above 10000 nM.
For `O=C(O)CCC[C@H]1CC[C@@H]2[C@@H](/C=C/[C@@H](O)COc3ccccc3)[C@H](O)C[C@@H]2OC1` [Example 17 (23), 4-{(3S, 5aR, 6R, 7R, 8aS)-7-hydroxy-6-[(1E, 3R)-3-hydroxy-4-phenoxy-1-buten-1-yl]octahydro-2H-cyclopenta(b]oxepin-3-yl}butanoic acid], the EC50 in test [1] is 8.3 nM; in test [2], 100 nM; in test [3], above 10000 nM.
The like results for `O=C(O)CCC[C@H]1CC[C@@H]2[C@@H](/C=C/[C@@H](O)COc3cc(F)ccc3F)[C@H](O)C[C@@H]2OC1` [Example 17 (25), 4-{(3S, 5aR, 6R, 7R, 8aS)-6-[(1E, 3R)-4-(2,5-difluorophenoxy)-3-hydroxy-1-buten-1-yl]-7-hydroxyoctahydro-2H-cyclopenta[b]oxepin-3-yl}butanoic acid] were, in that order, 2.4 nM, 857 nM and above 10000 nM.
For `O=C(O)COC[C@H]1CC[C@@H]2[C@@H](/C=C/[C@@H](O)COc3cc(F)cc(Cl)c3)[C@H](O)C[C@@H]2OC1` [Example 29 (12), ({(3R, 5aR, 6R, 7R, 8aS)-6-[(1E,3R)-4-(3-chloro-5-fluorophenoxy)-3-hydroxy-1-buten-1-yl]-7-hydroxyoctahydro-2H-cyclopenta[b]oxepin-3-yl}methoxy)acetic acid], the half-maximal effective concentration (EC50) in test [1] is 7.1 nM; in test [2], above 10000 nM; in test [3] it was above 10000 nM.
As to `O=C(O)CCC[C@H]1CC[C@@H]2[C@@H](/C=C/C(F)(F)COc3ccccc3)[C@H](O)C[C@@H]2OC1` [Example 32, 4-{(3S, 5aR, 6R, 7R, 8aS)-6-[(1E)-3,3-difluoro-4-phenoxy-1-buten-1-yl]-7-hydroxyoctahydro-2H-cyclopenta[b]oxepin-3-yl}butanoic acid], the EC50 in test [1] was 1.6 nM; in test [2], above 10000 nM; in test [3] it was above 10000 nM.

By EC50 is commonly meant the concentration that produces a half-maximal response.
